# Experimental data taken from patent publication US7977364B2, “Indazoles, benzisoxazoles and benzisothiazoles and their use as estrogenic agents” (Laboratoire Thermamex, priority 2004, dated 2011).
# Tests used:
# [1] = tested on: human endometrial adenocarcinoma Ishikawa cells; assay: Estrogenic and anti-estrogenic activities in vitro: induction of alkaline phosphatase (APase) activity; type: cell-based; conditions: for EC50: Homo sapiens, Ishikawa, 96 h, compound alone, four days, ND = not detected, read-out: Estrogenic activity EC50 (nM) ± S.E.M; for estrogenic effect in alkaline phosphatase activity in the Ishikawa cell model: in words
# Method: The estrogenic and anti-estrogenic potentials of new compounds were evaluated using the induction of alkaline phosphatase (APase) activity, an estrogen specific response in human endometrial adenocarcinoma Ishikawa cells (Botella J., J Steroid Biochem Molec Biol, 1995, 55: 77-84; Littlefield et al., Endocrinology, 1990, 127: 2757-2762).
# Ishikawa cells were routinely grown as monolayers in Dulbecco's Modified Eagle's medium (DMEM) containing 4 mM Glutamax I and supplemented with 10% of decomplemented fetal calf serum (dFCS) and antibiotics. They were maintained in a humidified atmosphere of 5% CO2 and 95% air, at 37±0.1° C. Stocks were performed once a week to maintain continuous exponential growth.
# For studies, Ishikawa cells were plated into 96-well microplates. The next day, the medium was changed to a phenol red-free DMEM containing 5% dFCS stripped of endogenous estrogens by dextran coated charcoal treatment.
# At the end of the incubation period, APase activity was assayed by a method involving the hydrolysis of p-nitrophenyl phosphate to p-nitrophenol at pH 9.8 and spectrophotometric determination of the product at 405 nm.
# In brief, the microplates were first rinsed twice with cold phosphate buffered solution and then placed at −80° C. for at least 15 minutes. After thawing at room temperature for 5-10 minutes, the plates were put on ice and 50 μl ice-cold solution containing 5 mM p-nitrophenyl phosphate was added to each well. The plates were warmed to room temperature to allow for the development of the enzymatic reaction (t0). After a 15 to 60 minute incubation period, the intensity of the yellow color generated by the production of p-nitrophenol was measured into each well at 405 nm using a microplate reader (Wallac, model 1420 Victor^2). […] Sigmoidal dose-response curves were plotted and EC50 (estrogenic effect) and IC50 (anti-estrogenic effect) values were calculated for each compound.
# [2] = tested on: human breast cancer cell line MCF-7; assay: Proliferative activity in vitro (ATP luminescence, 6 days); type: cell-based; conditions: Homo sapiens, MCF7, 144 h; for activity at 1 µM: MCF-7, 10^−6 M, read-out: Effect at 10^−6 M (% of control); for activity at 1 µM / activity at 0.01 µM: six days; for activity at 0.01 µM: MCF-7, 10^−8 M, read-out: Effect at 10^−8 M (% of control); for EC50: MCF-7, six days, read-out: Cell proliferation EC50 (nM) ± S.E.M
# Method: The proliferative effect of the compounds of the invention was evaluated on human breast cancer cell line MCF-7 by measuring the number of viable cells after 6 days of treatment.
# MCF-7 cells were routinely cultured as monolayers in Dulbecco's modified Eagle's medium (DMEM) containing 4 mM Glutamax and 4.5 g/l glucose and supplemented with 5% (v/v) decomplemented fetal calf serum (dFCS) and antibiotics.
# Cells were plated at 2.10^6 cells/75 cm^2 flasks and incubated at 37° C. in a humidified atmosphere containing 5% CO2. They were passaged once weekly to maintain continuous exponential growth. Forty eight hours before the start of an experiment, near-confluent cells were changed to a phenol red free DMEM containing 5% steroid-stripped dFCS by dextran coated charcoal treatment (DCC-DMEM). On the day of the experiment, cells were harvested by brief exposure to trypsin and plated in DCC-DMEM in 96-well microplates at a density of 4.10^3 cells/well. The next day, the medium was renewed and test compounds, diluted appropriately in estrogen-free DMEM, were added and incubated for six days. […] At the end of the incubation period, cell proliferation was evaluated by quantitation of the cellular ATP content which signals the presence of metabolically active cells.
# The assay, based on the ATP-dependent luciferase reaction, enables generation of a luminescent signal proportional to the amount of ATP present. As there is a linear relationship between the amount of ATP and the number of viable cells present in culture, the luminescent signal allowed to precisely evaluate cell proliferation (Crouch, S. P. M. et al. J. Immunol. Meth., 1993, 160, 81; Kangas, L. et al. Med. Biol. 1984, 62, 338; Petty, R. D. et al. J. Biolum. Chemilum. 1995, 10, 29).
# In brief, the microplates were inverted to discard the culture medium and 100 μl of fresh medium was added into each well. The microplates were equilibrated at room temperature for approximately 30 minutes. 100 μl of luciferase reagent was added into each well and contents were mixed for 2 minutes to induce cell lysis. The plates were incubated at room temperature for 10 minutes to stabilize luminescence signal.
# Luminescence was recorded using a microplate reader (Wallac, model 1420 Victor^2) and results were expressed as percentage of the control luminescence. Sigmoidal dose-response curves were plotted and EC50 values were calculated for each compound in order to evaluate their proliferative potency.
# Prepubescent female rats = assay: Estrogenic / uterotrophic activity in vivo (uterus wet weight); set-up: species or system rat; conditions: Rattus norvegicus, po, 72 h, Table 4; orally 3 mg/rat/day for 3 days; read-out: % stimulation vs vehicle (uterus weight)
# Method: Prepubescent female rats were orally treated at 3 mg/rat/day for 3 days. On the day following the last treatment, uteri were removed and wet weights were recorded.
# The results are expressed as % of stimulation of uterus weight in comparison with vehicles. […]
# Prepubescent female rats were orally treated with 0.3; 1; 3 or 10 mg/rat/day for 3 days. On the day following the last treatment, uteri were removed and wet weights were recorded.
# [3] = target: T1, purified full-length recombinant human ERα (Homo sapiens, UniProt P03372); assay: Estrogen receptor α competitive radiometric binding assay ([3H]-E2); conditions: for RBA (%) Mean ± S.E.M, ER α: ratio of IC50s of E2 and competitor, E2 set at 100%
# T1 sequence (P03372 1-595): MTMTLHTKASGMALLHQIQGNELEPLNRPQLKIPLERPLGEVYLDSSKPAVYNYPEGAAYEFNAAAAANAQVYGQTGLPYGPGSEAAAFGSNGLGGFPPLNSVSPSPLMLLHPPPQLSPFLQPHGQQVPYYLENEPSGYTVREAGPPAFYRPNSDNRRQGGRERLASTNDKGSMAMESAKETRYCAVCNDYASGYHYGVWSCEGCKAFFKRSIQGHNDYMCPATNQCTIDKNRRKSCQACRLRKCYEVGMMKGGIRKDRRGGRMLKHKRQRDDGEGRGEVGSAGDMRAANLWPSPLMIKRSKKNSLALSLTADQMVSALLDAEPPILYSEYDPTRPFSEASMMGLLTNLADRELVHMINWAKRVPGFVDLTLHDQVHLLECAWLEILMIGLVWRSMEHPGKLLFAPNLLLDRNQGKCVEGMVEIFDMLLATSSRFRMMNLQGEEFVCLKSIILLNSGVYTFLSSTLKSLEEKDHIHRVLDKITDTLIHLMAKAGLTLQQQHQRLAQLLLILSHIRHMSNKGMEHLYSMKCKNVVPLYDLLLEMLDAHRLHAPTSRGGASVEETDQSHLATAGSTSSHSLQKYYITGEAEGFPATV
# Method: (§1) Relative binding affinities (RBA) were determined by competitive radiometric binding assays, using purified full-length recombinant human ERα and ERβ (PanVera, Madison, Wis.). […] After shaking for a few seconds and centrifugation at 1500 g and 4° C. for 10 minutes, 150 μl/well of Optiphase ‘Super Mix’ scintillation liquid was mixed with 50 μl of supernatant of each sample and the radioactivity was measured in a MicroBeta counter (Wallac, Turku, Finland). Data were evaluated by a sigmoidal dose-response curve (Prism, GraphPad Software Inc.) to estimate the concentration of competitor at half-maximal specific binding (IC50). […] The selectivity for ERα and ERβ was obtained from the ratio R of the IC50 for ERα to the IC50 for ERβ for each test compound.
# [4] = target: purified full-length recombinant human ERβ (Homo sapiens, UniProt Q92731); assay: Estrogen receptor β competitive radiometric binding assay ([3H]-E2); conditions: for RBA (%) Mean ± S.E.M, ER β: ratio of IC50s of E2 and competitor, E2 set at 100%; for R (IC50s) αβ: ratio of the IC50 for ERα to the IC50 for ERβ; for selectivity for the human recombinant estrogen receptor β: in words
# Chain of purified full-length recombinant human ERβ (Q92731 whole entry): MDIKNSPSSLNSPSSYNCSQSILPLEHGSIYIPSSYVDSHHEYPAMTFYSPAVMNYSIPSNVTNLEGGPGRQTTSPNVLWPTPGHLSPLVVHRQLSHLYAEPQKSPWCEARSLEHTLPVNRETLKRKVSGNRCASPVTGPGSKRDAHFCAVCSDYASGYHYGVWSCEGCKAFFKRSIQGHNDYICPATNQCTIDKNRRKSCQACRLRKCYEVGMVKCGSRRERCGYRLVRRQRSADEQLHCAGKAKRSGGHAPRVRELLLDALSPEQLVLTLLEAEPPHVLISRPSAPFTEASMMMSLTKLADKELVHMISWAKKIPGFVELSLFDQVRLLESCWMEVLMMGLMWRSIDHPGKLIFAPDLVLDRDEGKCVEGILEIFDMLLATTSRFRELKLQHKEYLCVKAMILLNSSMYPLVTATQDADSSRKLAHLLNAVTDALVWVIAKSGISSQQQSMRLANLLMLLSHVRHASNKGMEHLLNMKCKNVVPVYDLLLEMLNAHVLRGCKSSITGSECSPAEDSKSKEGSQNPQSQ
# Method: as §1
SMILES,EC50 [1] [nM],activity at 1 µM [2] [%],activity at 0.01 µM [2] [%],EC50 [2] [nM],change in vivo at 3 mg (Prepubescent female rats) [%],melting point [°C],IC50 [3] [nM],"RBA (%) Mean ± S.E.M, ER α [3] [%]",IC50 [4] [nM],"RBA (%) Mean ± S.E.M, ER β [4] [%]",R (IC50s) αβ [4],estrogenic effect in alkaline phosphatase activity in the Ishikawa cell model [1],selectivity for the human recombinant estrogen receptor β [4]
"Oc1ccc2c(C3CCCCC3)n[nH]c2c1 [Ex 24, 3-cyclohexyl-1H-indazol-6-ol]",136.3 ± 1.2,143,89.9,18.5 ± 1.8,101,147,159 ± 23.7,1.2 ± 0.2,10.2 ± 0.9,24.6 ± 4.3,15.6,,
"Cl.Oc1ccc2c(C34CC5CC(CC(C5)C3)C4)n[nH]c2c1 [Ex 31, 3-(1-adamantyl)-1H-indazol-6-ol, hydrochloride]",30.8 ± 0.5,146,139,3.7 ± 0.7,468,,119 ± 45.2,3.1 ± 0.8,36.2 ± 18.7,17.7 ± 5.1,3.3,weak estrogenic effect,marked selectivity
"NS(=O)(=O)n1nc(C2CCCCC2)c2ccc(O)cc21 [Ex 40, 3-cyclohexyl-6-hydroxy-1H-indazole-1-sulfonamide]",132 ± 4.7,152,107,11.5 ± 2.8,41,162,1480 ± 1180,0.1 ± 0.02,188 ± 34,1.0 ± 0.2,7.9,,
"Oc1ccc2c(C3CCCCCC3)noc2c1 [Ex 65, 3-cycloheptyl-1,2-benzisoxazol-6-ol]",51.7 ± 6.2,260,123,27.6 ± 2,84,156,75.3 ± 5.4,2.5 ± 0.6,20.2 ± 4.2,13.2 ± 3.1,3.7,,
"Oc1ccc2c(C3CCCCC3)noc2c1 [Ex 66, 3-cyclohexyl-1,2-benzisoxazol-6-ol]",221 ± 14,149,100,25.4 ± 4,31,181,260 ± 40.1,1.1 ± 0.2,44.6 ± 7.7,9.4 ± 3.1,5.8,weak estrogenic effect,marked selectivity
"Oc1ccc(Cc2noc3cc(O)ccc23)cc1 [Ex 73, 3-(4-hydroxybenzyl)-1,2-benzisoxazol-6-ol]",,134,94.2,365 ± 126,52,,2910 ± 318,0.1 ± 0.0,485 ± 158,1.0 ± 0.3,6.0,weak estrogenic effect,marked selectivity
"N#CC(Cc1ccc(O)cc1)c1noc2cc(O)ccc12 (centres unmarked) [Ex 80, 2-(6-hydroxy-1,2-benzisoxazol-3-yl)-3-(4-hydroxyphenyl) propanenitrile]",147 ± 39.9,147,110,45.2 ± 25.6,70,,67.5 ± 5,3.4 ± 0.4,7.5 ± 0.7,43.0 ± 7.8,9.0,,
"N#CC(Cc1ccc(F)cc1)c1noc2cc(O)ccc12 (centres unmarked) [Ex 84, 2-(6-hydroxy-1,2-benzisoxazol-3-yl)-3-(4-fluorophenyl) propanenitrile]",322 ± 20,286,97,77.9 ± 4.1,24,152,2300 ± 446,0.1 ± 0.03,123 ± 25.9,2.5 ± 0.4,18.7,weak estrogenic effect,marked selectivity
